Data published in PMC6220272, “Scaffold-Hopping from Synthetic Drugs by Holistic Molecular Representation” (Scientific Reports, 2018).

Legend:
Assay type in all cases: cell-based
[1] = molecular target: T1, human RXRα ligand binding domain (Gal4 hybrid receptor) (Homo sapiens, UniProt P19793); assay: Gal4 hybrid reporter gene assay RXRα; conditions: HEK293T cells, n ≥ 4, read-out: RXRα EC50 ± SEM
T1 construct: expressed in transfected cells; host or cells: HEK293T
T1 sequence (P19793 227-458 limits assumed): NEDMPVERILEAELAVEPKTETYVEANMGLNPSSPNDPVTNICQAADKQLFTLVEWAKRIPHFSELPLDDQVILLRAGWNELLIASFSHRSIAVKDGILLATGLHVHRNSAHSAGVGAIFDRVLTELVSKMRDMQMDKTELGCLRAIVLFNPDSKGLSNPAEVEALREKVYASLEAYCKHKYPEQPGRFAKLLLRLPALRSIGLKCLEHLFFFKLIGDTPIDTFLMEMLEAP
Experimental: (§1) The 20 top-ranked synthetic compounds were selected and tested in vitro for their modulatory activity on RXR (Supplementary Table 1). Compounds were tested in specific hybrid reporter gene assays for RXRα, RXRβ and RXRγ modulation[39]–[41]. These assays rely on a constitutively expressed hybrid receptor composed of the respective human RXR ligand binding domain and the DNA binding domain of the Gal4 receptor from yeast. A Gal4 responsive firefly luciferase was used as reporter gene and constitutively expressed renilla luciferase served as internal control for transfection efficiency and test compound toxicity. All selected compounds were tested at 50 µM concentration on RXRα and for active compounds (Supplementary Fig. 1), dose response curves were recorded on all three RXR subtypes.
(§2) The Gal4 hybrid reporter gene assays were conducted as reported previously[39]–[41]. pFA-CMV-based constructs comprising the ligand binding domain of the human nuclear receptor in question were used as expression plasmids for the chimera receptors. pFR-Luc (Stratagene) served as reporter plasmid and pRL-SV40 (Promega) for normalization of transfection efficiency and cell growth. The assays were conducted in 96-well format in HEK293T cells that were cultured as described previously[39]–[41]. Transient transfection was carried out using Lipofectamine LTX reagent (Invitrogen) according to the manufacturer’s protocol. After transfection and incubation with test compounds (12–14 h), cells were assayed for luciferase activity using Dual-Glo™ Luciferase Assay System (Promega) according to the manufacturer’s protocol. Luminescence was measured with an Infinite M200 luminometer (Tecan Deutschland GmbH). All hybrid assays were validated with reference agonists (PPARα: GW7647; PPARγ: pioglitazone; PPARδ: L165,041; LXRα/β: T0901317; FXR: GW4064; RXRs: bexarotene; RARs: tretinoin; VDR: calcitriol; CAR: CITCO; PXR: SR12813) which yielded EC50 values in agreement with literature. The assays were conducted in duplicates with at least two independent repeats and for active compounds repeated without hybrid receptor coding DNA for every test compound at the highest tested concentration to exclude unspecific effects.
(§3) Supplementary Figure 2. Dose-response curves for RXRα activation. Compounds were tested in specific hybrid reporter gene assays for RXRα, RXRβ and RXRγ modulation.^1–3 These assays rely on a constitutively expressed hybrid receptor composed of the respective human RXR ligand binding domain and the DNA binding domain of the Gal4 receptor from yeast. A Gal4 responsive firefly luciferase was used as reporter gene and constitutively expressed renilla luciferase served as internal control for transfection efficiency and test compound toxicity. […]

[2] = molecular target: T2, human RXRβ ligand binding domain (Gal4 hybrid receptor) (Homo sapiens, UniProt P28702); assay: Gal4 hybrid reporter gene assay RXRβ; conditions: HEK293T cells, n ≥ 4, read-out: RXRβ EC50 ± SEM
T2 construct: expressed in transfected cells; host or cells: HEK293T
T2 sequence (P28702 296-529 limits assumed): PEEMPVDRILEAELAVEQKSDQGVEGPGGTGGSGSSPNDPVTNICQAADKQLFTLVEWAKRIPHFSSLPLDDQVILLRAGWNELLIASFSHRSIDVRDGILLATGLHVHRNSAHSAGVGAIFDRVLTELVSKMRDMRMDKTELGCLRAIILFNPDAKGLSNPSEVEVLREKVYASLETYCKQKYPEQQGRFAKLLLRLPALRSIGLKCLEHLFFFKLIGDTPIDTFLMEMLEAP
Experimental: as §1, §2, §3

[3] = molecular target: T3, human RXRγ ligand binding domain (Gal4 hybrid receptor) (Homo sapiens, UniProt P48443); assay: Gal4 hybrid reporter gene assay RXRγ; conditions: HEK293T cells, n ≥ 4, read-out: RXRγ EC50 ± SEM
T3 construct: expressed in transfected cells; host or cells: HEK293T
T3 sequence (P48443 231-459 limits assumed): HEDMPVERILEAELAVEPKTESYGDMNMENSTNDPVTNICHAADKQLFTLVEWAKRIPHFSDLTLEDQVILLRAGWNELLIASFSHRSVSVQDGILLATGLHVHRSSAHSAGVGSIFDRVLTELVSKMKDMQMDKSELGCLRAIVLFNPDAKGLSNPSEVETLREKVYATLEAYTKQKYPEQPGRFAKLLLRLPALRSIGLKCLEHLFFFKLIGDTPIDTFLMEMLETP
Experimental: as §1, §2, §3

| SMILES | EC50 [1] [µM] | EC50 [2] [µM] | EC50 [3] [µM] |
| --- | --- | --- | --- |
| Cc1ccc(NC2=NC(=O)/C(=C/c3ccc(O)cc3)S2)cc1C [Compound 5] | 17 ± 1 | 14.7 ± 0.8 | 15 ± 0.6 |
| CC(NC(=O)c1cccc(OCc2ccccc2)c1)c1ccccc1 (stereo not drawn) [Compound 6] | 16.5 ± 0.6 | 16.6 ± 0.2 | 16 ± 4 |
| CC/C(=N/NC(=S)Nc1ccc(Cl)cc1Cl)c1ccc(O)cc1 [Compound 8] | 23.7 ± 0.7 | 25.6 ± 0.4 | 32 ± 3 |
